For series [1] the following is noted: cited from earlier work.
The conditions of series [2]: cited from earlier work; for Ostwald coefficient (×10^6): gas solubility.
The nature of series [3]: In vitro cavitation measurement by passive cavitation detection (PCD). The settings on record: C3F8; 499 KPa; about 6×10^7 MBs or 350 μl free gas. How it is done: Lyophilized microbubbles prepared as described in Example 1 herein were weighed and inserted into a headspace vial, and the vial was sealed by a screw cap with 1.3 mm silicone septum. Empty 50 ml syringe, 10 ml syringe filled with the desired gas and a 27 G needle, were connected to a 3 ways stopcock. The air inside the vail was drawn using the 50 ml syringe to form a vacuum, then the desired gas in the 10 ml syringe was injected into the vial. The MBs were dispersed with the desired volume (3 ml-7 ml) of degassed water, which was injected with an additional syringe and needle (23 G) through the septum cap, to prevent gas leakage. […]
Acoustic absorbing material (E in FIG. 8) was located at the top of the chamber to prevent ultrasound reflection, and a receiver (hydrophone manufactured by InSightec) was placed at an angle of […] to the direction of wave propagation (F in FIG. 8). […] These variations were recorded by the same digital pico-oscilloscope, and the data was analyzed using MATLAB software. […]
Between measurements, it was necessary to degas the water in the system to ensure that the measured cavitation was caused by the activity of microbubbles examined in the specific experiment, and not as a result of existing gas bubbles in water, or microbubbles from a previous experiment, which remained in the system. […]
The data were analyzed using MATLAB software. […]

SMILES strings stand for the structures. Values after ≈ are worked out from the molar mass of the structure shown.

On to `ClCCl` [DCM, dichloromethane], for which, in series [1], the water solubility is 20 mg/mL (≈ 235 mM). On to `FS(F)(F)(F)(F)F` [SF6, sulfur hexafluoride], for which, in series [2], the “Ostwald coefficient (×10^6)” value is given as 5400 ×10^6 and the “Diffusivity coefficient in water” value was 12 m^2s^−1 (×10^10). In the case of `FC(F)(F)C(F)(F)C(F)(F)F` [Synthesis C3F8, perfluoropropane], in series [2], the “Ostwald coefficient (×10^6)” value is on record as 520 ×10^6 and the “Diffusivity coefficient in water” value was 7.45 m^2s^−1 (×10^10). In series [3], the “cavitation dose (CD) by inner core structure, compared with hollow single-core microbubbles” value is on record as “very low”. With `FC(F)(F)C(F)(F)C(F)(F)C(F)(F)F` [Synthesis C4F10, perfluorobutane], in series [2], the “Ostwald coefficient (×10^6)” value is given as 202 ×10^6 and the “Diffusivity coefficient in water” value is on record as 6.9 m^2s^−1 (×10^10). Turning to `CCOC(C)=O` [ethyl acetate], the water solubility in series [1] was 90 mg/mL.

The record behind these values is patent US12527869B2, “Stable microspheres, method off abrication and use thereof” (B. G. NEGEV TECHNOLOGIES AND APPLICATIONS LTD., AT …, priority 2018, dated 2026).
